Patent US20130023645A1 (priority 2006, published 2013)
Several values for one entry are separate records, joined by “and”; a condition that tells them apart may be missing. Equal entries are not always repeated. Positions of bridges follow the written chain, without caps; N, C: chain ends. Non-standard residues stand in square brackets, D forms with d. Residues, ends and D or L forms follow the SMILES beside them. ξ: configuration not given here. Ala(indol-2-yl) = N[C@@H](Cc1cc2ccccc2[nH]1)C(=O)O; AllylGly = C=CC[C@H](N)C(=O)O; ξP = O=C(O)C1CCCN1

Molecular target: T1, neuronal-type nicotinic receptors (Bos taurus, UniProt Q07263+Q8SPU6)
T1 construct: monolayer cultures of bovine adrenal chromaffin cells; endogenous in cells; host or cells: bovine adrenal chromaffin cells (primary monolayer cultures)
T1 sequence (Q07263 22-495): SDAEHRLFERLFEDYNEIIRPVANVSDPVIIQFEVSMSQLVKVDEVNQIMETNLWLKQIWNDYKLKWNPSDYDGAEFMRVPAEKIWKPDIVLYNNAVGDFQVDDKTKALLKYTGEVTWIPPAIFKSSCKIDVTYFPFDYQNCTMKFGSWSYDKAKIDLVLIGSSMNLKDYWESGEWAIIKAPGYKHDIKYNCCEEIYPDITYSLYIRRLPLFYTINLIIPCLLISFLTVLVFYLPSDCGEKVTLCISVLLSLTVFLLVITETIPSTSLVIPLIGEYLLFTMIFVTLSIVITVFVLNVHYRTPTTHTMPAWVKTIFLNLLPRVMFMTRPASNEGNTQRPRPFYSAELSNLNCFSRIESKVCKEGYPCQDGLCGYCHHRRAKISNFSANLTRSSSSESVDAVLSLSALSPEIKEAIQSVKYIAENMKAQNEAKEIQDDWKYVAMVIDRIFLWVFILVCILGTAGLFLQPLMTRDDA
T1 sequence (Q8SPU6 20-496): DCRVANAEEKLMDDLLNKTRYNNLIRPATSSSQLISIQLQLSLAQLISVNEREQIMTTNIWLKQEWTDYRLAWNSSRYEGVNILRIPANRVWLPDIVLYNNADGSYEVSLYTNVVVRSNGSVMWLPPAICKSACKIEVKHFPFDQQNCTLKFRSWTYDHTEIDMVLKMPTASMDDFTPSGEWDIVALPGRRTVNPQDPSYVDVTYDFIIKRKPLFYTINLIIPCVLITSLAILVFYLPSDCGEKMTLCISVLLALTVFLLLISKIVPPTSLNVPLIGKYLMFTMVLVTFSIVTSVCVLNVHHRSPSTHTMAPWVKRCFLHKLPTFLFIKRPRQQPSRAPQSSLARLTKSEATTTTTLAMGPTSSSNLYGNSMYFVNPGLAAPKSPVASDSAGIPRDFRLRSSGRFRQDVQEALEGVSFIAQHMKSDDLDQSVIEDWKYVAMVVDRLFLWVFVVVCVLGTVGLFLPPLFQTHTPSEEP
Format: cell-based, bovine

In the case of C[C@@H]1NC(=O)[C@@H]2CSSC[C@H](NC(=O)CN)C(=O)N[C@@H](CC=CC[C@@H](C(N)=O)NC(=O)[C@H](CCCNC(=N)N)NC(=O)[C@H](Cc3cc4ccccc4[nH]3)NC1=O)C(=O)N[C@@H](CO)C(=O)N[C@@H](CC(=O)O)C(=O)N1CCCC1C(=O)N[C@@H](CCCNC(=N)N)C(=O)N2 (stereo partly drawn) [compound 119, [2,8]-Cystino-[3,12]-Dicarba Conotoxin ImI: NH2-Gly-Cys-c[Hag-Ser-Asp-Pro-Arg-Cys-Ala-Trp-Arg-Hag]-NH2] (H-GC[AllylGly]SD[ξP]RCA[Ala(indol-2-yl)]R[AllylGly]-NH2; disulfide 2-8; staple 3-12), the “Adrenaline Release, % control” value is reported as 83.420% and 58.888%, the “Adrenaline Release, mean” value is reported as 3.77% and 2.76% and the “Adrenaline Release, single determinations (1st-4th)” value is reported as 3.31% and 3.67% and 4.14% and 3.98% and 2.32% and 2.95% and 2.76% and 3.02%. The “Noradrenaline Release, % control” value was 55.971% and 78.400%, the “Noradrenaline Release, % inhibition” value was 21.600% and the “Noradrenaline Release, mean” value was 4.15% and 5.52%. The “Noradrenaline Release, single determinations (1st-4th)” value was 3.22% and 4.58% and 3.99% and 4.81% and 4.89% and 5.75% and 5.73% and the “noradrenaline released, basal release (0.72%) subtracted” value was 3.43%.
